From US20200237786A1, “DIAGNOSIS AND TREATMENT OF ENDOMETRIOSIS BY SCREENING FOR L-FORM BACTERIA” (Soft Cell Biological Research, LLC, priority 2017, published 2020)

Tests used:
[1] = tested on: Bacterial strains identified in Example 5; assay: Antibiotic sensitivity by diffusion disk test of strains cultured from each subject; format: cell-based
Description: (§1) The disclosure is based, in part, on the recognition that certain L-form bacteria are sensitive to (e.g., not resistant to treatment with) specific antibiotic agents. In some embodiments, resistance to antibiotic agents is tested by a diffusion tab (diffusion disk) test, for example as described in Reller et al. (2009) Clinical Infectious Diseases, 49(11): 1749-1755. However, the skilled artisan recognizes that additional methods of antibiotic sensitivity testing may also be used.
(§2) Bacterial strains identified in Example 5 were tested for antibiotic sensitivity by a diffusion disk test. […] Resistance to Oxacillin was also observed in the M. maritypicum samples.

M. maritypicum = assay: Antibiotic sensitivity by diffusion disk test, M. maritypicum; format: cell-based, Microbacterium maritypicum
Description: as §1, §2

[2] = strains cultured from subject 1609
[3] = strains cultured from subject 1642
[4] = strains cultured from subject 1644
[5] = strains cultured from subject 3016
[6] = strains cultured from subject 1538
[7] = strains cultured from subject 1619
[8] = strains cultured from subject 1636
[9] = strains cultured from subject 1842
[10] = strains cultured from subject 3025
[11] = strains cultured from subject 3164
[12] = strains cultured from subject 1545
[13] = strains cultured from subject 1985
[14] = strains cultured from subject 1905

CO/N=C(\C(=O)N[C@@H]1C(=O)N2C(C(=O)O)=C(COC(N)=O)CS[C@H]12)c1ccco1 [Cefuroxime]
Resistance? [1, 2]: Cefuroxime | Resistance? [1, 3]: Cefuroxime | Most Effective Oral Antibiotic [1, 4]: Cefuroxime | Resistance? [1, 5]: Cefuroxime

C[C@@H](O)[C@H]1C(=O)N2C(C(=O)O)=C(S[C@@H]3CN[C@H](C(=O)N(C)C)C3)[C@H](C)[C@H]12 [Meropenem]
Most Effective IV Antibiotic [1, 6]: Meropenem | Most Effective IV Antibiotic [1, 2]: Meropenem | Most Effective IV Antibiotic [1, 7]: Meropenem | Most Effective IV Antibiotic [1, 8]: Meropenem | Most Effective IV Antibiotic [1, 9]: Meropenem | Most Effective IV Antibiotic [1, 10]: Meropenem | Most Effective IV Antibiotic ([1]; strains cultured from subject 3104): Meropenem | Most Effective IV Antibiotic [1, 11]: Meropenem

Cc1ncc([N+](=O)[O-])n1CCO [Metronidazole]
resistance observed for M. maritypicum (M. maritypicum; in the majority of samples): resistance | Resistance? [1, 6]: Metronidazole | Resistance? [1, 12]: Metronidazile, | Resistance? [1, 2]: Metronidazole, | Resistance? [1, 7]: Metronidazole, | Resistance? [1, 8]: Metronidazole, | Resistance? [1, 3]: Metronidazole, | Resistance? [1, 4]: Metronidazole, | Resistance? ([1]; strains cultured from subject 1661): Metronidazole, | Resistance? [1, 9]: Metronidazole, | Resistance? [1, 13]: Metronidazole | Resistance? [1, 5]: Metronidazole, | Resistance? [1, 11]: Metronidazole

Cc1onc(-c2ccccc2)c1C(=O)N[C@@H]1C(=O)N2[C@@H]1SC(C)(C)[C@@H]2C(=O)O [Oxacillin]
resistance observed in the M. maritypicum samples (M. maritypicum; M. maritypicum samples): Resistance | Resistance? [1, 12]: Oxacillin | Resistance? [1, 2]: Oxaillin | Resistance? [1, 7]: Oxacillin | Resistance? [1, 8]: Oxacillin | Resistance? [1, 3]: Oxacillin | Resistance? [1, 4]: Oxacillin | Resistance? [1, 9]: Oxacillin | Resistance? [1, 5]: Oxacilin | Resistance? [1, 10]: Oxacillin

Amoxiclav
Most Effective Oral Antibiotic [1, 6]: Amoxiclav | Resistance? [1, 3]: Amoxiclav | Most Effective Oral Antibiotic ([1]; strains cultured from subject 1888): Amoxiclav | Most Effective Oral Antibiotic [1, 14]: Amoxiclav, | Most Effective Oral Antibiotic [1, 5]: Amoxiclav | Most Effective Oral Antibiotic [1, 10]: Amoxiclav

Penicillin
Most Effective Oral Antibiotic [1, 14]: Penicillin | Resistance? [1, 5]: Penicillin

Rifapin
Most Effective Oral Antibiotic [1, 13]: Rifapin

Sulfa-Trimeth
Resistance? [1, 12]: Sulfa- | Resistance? [1, 3]: Sulfa-Trimeth, | Resistance? [1, 5]: Sulfa-Trimeth,
